From patent US20230233569A1 (Revolution Medicines, Inc., priority 2020, published 2023)

How the values were obtained:
KRAS WT = KRAS WT (Homo sapiens, UniProt P01116+P62937); experiment: Disruption of BRAF RBD interaction with Ras (FRET / MOA assay, with Cyclophilin A); type: biochemical; settings: KRAS WT; read-out: KRAS WT FRET data IC50
Method in brief: (§1)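 TR-FRET: nucleotide-loaded K-Ras mutant or WT with Cyclophilin A and BRAF RBD, compound 10-point 3-fold from 30 μM final, 3 h at 25° C, then anti-His Eu (10 nM) and anti-GST APC (50 nM) for 1.5 h. Decreased FRET ratio versus DMSO gives IC50.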

KRAS G12D = KRAS G12D (Homo sapiens, UniProt P01116+P62937, G12D); experiment: as above; type: biochemical; settings: read-out: KRAS G12D FRET data, IC50
Method in brief: as §1

KRAS G12S = KRAS G12S (Homo sapiens, UniProt P01116+P62937, G12S); experiment: as above; type: biochemical; settings: read-out: KRAS G12S FRET data, IC50
Method in brief: as §1

KRAS G13C = KRAS G13C (Homo sapiens, UniProt P01116+P62937, G13C); experiment: as above; type: biochemical; settings: read-out: KRAS G13C FRET data, IC50
Method in brief: as §1

KRAS G12V = KRAS G12V (Homo sapiens, UniProt P01116+P62937, G12V); experiment: as above; type: biochemical; settings: KRAS G12V; read-out: KRAS G12V FRET data IC50
Method in brief: as §1

KRAS G12C = KRAS G12C (Homo sapiens, UniProt P01116+P62937, G12C); experiment: as above; type: biochemical; settings: read-out: KRAS G12C FRET data, IC50
Method in brief: as §1

KRAS G13D = KRAS G13D (Homo sapiens, UniProt P01116+P62937, G13D); experiment: as above; type: biochemical; settings: KRAS G13D; read-out: KRAS G13D FRET data IC50
Method in brief: as §1

NRAS G12C = NRAS G12C (Homo sapiens, UniProt P01111+P62937, G12C); experiment: as above; type: biochemical; settings: NRAS G12C; read-out: NRAS G12C FRET data IC50
Capan-1 (K-Ras G12V) = experiment: CellTiter-Glo cell viability assay, 5-day treatment; type: cell-based; settings: Homo sapiens, CAPAN-1, 120 h, 5-day treatment; read-out: Capan-1 Cell Viability assay data (K-Ras G12V, IC50)
Method in brief: (§2)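 Five-day compound treatment of plated cells; luminescent read after ~30 min at RT. Percent-of-DMSO data fit to a four-parameter logistic model.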

NCI-H358 (K-Ras G12C) = experiment: as above; type: cell-based; settings: Homo sapiens, NCI-H358, 120 h, 5-day treatment; read-out: H358 Cell Viability assay data (K-Ras G12C, IC50)
Method in brief: as §2

NRAS Q61R = NRAS Q61R (Homo sapiens, UniProt P01111+P62937, Q61R); experiment: Disruption of BRAF RBD interaction with Ras (FRET / MOA assay, with Cyclophilin A); type: biochemical; settings: NRAS Q61R; read-out: NRAS Q61R FRET data IC50
Method in brief: (§3)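 TR-FRET in 25 mM HEPES pH 7.3, 100 mM NaCl, 5 mM MgCl2, 0.1% BSA: 25 μM Cyclophilin A, 12.5 nM His6-Ras-GMPPNP, 50 nM GST-BRAF RBD with compound (10-point 3-fold series from 30 μM), 3 h at 25° C. Anti-His Eu/anti-GST APC added, 1.5 h more; IC50 from decreased FRET ratio versus DMSO.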

NRAS WT = NRAS WT (Homo sapiens, UniProt P01111+P62937); experiment: as above; type: biochemical; settings: NRAS WT; read-out: NRAS WT FRET data IC50
Method in brief: as §3

KRAS Q61H = KRAS Q61H (Homo sapiens, UniProt P01116+P62937, Q61H); experiment: as above; type: biochemical; settings: KRAS Q61H; read-out: KRAS Q61H FRET data IC50
Method in brief: as §3

NRAS Q61K = NRAS Q61K (Homo sapiens, UniProt P01111+P62937, Q61K); experiment: as above; type: biochemical; settings: NRAS Q61K; read-out: NRAS Q61K FRET data IC50
Method in brief: as §3

KRAS G12C, sequence (P01116 1-169 isoform P01116-2 G12C): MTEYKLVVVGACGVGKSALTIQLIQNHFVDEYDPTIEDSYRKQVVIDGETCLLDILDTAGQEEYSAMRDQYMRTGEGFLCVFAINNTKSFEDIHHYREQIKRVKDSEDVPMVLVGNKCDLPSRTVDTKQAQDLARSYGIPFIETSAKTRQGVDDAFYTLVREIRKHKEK
KRAS G12C, sequence (P62937 whole entry): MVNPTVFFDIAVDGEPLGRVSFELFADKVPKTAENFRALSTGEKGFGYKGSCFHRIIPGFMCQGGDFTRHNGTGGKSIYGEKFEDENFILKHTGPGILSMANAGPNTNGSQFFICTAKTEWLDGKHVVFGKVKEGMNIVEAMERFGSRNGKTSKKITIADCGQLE
KRAS G12V, sequence (P01116 1-169 isoform P01116-2 G12V limits assumed): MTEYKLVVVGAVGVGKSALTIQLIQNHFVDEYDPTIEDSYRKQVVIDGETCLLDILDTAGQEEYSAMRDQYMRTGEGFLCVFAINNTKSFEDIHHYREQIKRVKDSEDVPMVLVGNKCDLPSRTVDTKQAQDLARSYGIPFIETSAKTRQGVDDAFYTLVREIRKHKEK
KRAS G12V, sequence (P62937 whole entry): as the sequence (P62937 whole entry) above
NRAS G12C, sequence (P01111 whole entry G12C): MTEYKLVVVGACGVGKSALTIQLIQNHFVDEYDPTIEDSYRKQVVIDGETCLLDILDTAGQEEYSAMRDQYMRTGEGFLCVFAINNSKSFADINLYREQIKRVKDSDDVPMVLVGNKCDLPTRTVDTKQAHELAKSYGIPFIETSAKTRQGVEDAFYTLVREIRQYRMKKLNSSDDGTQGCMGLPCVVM
NRAS G12C, sequence (P62937 whole entry): as the sequence (P62937 whole entry) above
NRAS Q61R, sequence (P01111 whole entry Q61R): as the sequence (P01111 whole entry G12C) above, with C12G, Q61R counted along it
NRAS Q61R, sequence (P62937 whole entry): as the sequence (P62937 whole entry) above
KRAS G12D, sequence (P01116 1-169 isoform P01116-2 G12D limits assumed): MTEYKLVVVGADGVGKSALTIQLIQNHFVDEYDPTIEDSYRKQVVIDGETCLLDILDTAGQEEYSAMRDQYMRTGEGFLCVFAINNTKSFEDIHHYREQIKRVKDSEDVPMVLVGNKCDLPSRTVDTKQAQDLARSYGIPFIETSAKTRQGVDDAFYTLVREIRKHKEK
KRAS G12D, sequence (P62937 whole entry): as the sequence (P62937 whole entry) above
NRAS Q61K, sequence (P01111 whole entry Q61K): as the sequence (P01111 whole entry G12C) above, with C12G, Q61K counted along it
NRAS Q61K, sequence (P62937 whole entry): as the sequence (P62937 whole entry) above
KRAS WT, sequence (P01116 1-169 isoform P01116-2 limits assumed): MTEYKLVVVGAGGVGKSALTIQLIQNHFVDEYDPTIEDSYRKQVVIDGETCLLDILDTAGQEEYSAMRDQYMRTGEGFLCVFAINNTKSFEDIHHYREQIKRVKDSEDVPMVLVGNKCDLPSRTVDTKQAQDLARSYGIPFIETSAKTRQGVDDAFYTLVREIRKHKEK
KRAS WT, sequence (P62937 whole entry): as the sequence (P62937 whole entry) above
KRAS G12S, sequence (P01116 1-169 isoform P01116-2 G12S limits assumed): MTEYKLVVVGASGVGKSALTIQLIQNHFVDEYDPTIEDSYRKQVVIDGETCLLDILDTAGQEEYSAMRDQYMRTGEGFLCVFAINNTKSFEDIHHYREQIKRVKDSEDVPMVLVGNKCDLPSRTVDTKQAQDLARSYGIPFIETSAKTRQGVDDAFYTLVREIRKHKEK
KRAS G12S, sequence (P62937 whole entry): as the sequence (P62937 whole entry) above
KRAS G13C, sequence (P01116 1-169 isoform P01116-2 G13C): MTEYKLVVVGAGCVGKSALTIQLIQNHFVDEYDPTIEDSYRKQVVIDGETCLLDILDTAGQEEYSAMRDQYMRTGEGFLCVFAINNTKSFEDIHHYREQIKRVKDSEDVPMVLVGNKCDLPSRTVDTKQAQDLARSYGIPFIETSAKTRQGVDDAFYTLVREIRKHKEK
KRAS G13C, sequence (P62937 whole entry): as the sequence (P62937 whole entry) above
NRAS WT, sequence (P01111 whole entry): as the sequence (P01111 whole entry G12C) above, with C12G counted along it
NRAS WT, sequence (P62937 whole entry): as the sequence (P62937 whole entry) above
KRAS Q61H, sequence (P01116 1-169 isoform P01116-2 Q61H limits assumed): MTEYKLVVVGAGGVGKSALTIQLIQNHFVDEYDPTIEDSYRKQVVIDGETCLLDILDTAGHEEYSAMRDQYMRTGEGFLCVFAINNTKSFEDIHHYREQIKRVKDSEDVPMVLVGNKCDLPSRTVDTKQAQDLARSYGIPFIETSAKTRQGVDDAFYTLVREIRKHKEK
KRAS Q61H, sequence (P62937 whole entry): as the sequence (P62937 whole entry) above
KRAS G13D, sequence (P01116 1-169 isoform P01116-2 G13D limits assumed): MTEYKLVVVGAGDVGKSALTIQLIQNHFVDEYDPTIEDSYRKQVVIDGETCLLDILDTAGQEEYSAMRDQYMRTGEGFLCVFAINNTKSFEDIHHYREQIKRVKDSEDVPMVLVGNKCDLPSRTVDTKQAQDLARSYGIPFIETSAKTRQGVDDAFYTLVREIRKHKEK
KRAS G13D, sequence (P62937 whole entry): as the sequence (P62937 whole entry) above

| Structure (SMILES) | IC50 (KRAS WT) [µM] | IC50 (KRAS G12D) [µM] | IC50 (KRAS G12S) [µM] | IC50 (KRAS G13C) [µM] | IC50 (KRAS G12V) [µM] | IC50 (KRAS G12C) [µM] | IC50 (KRAS G13D) [µM] | IC50 (NRAS G12C) [µM] | IC50 (NCI-H358 (K-Ras G12C)) [µM] | IC50 (NRAS Q61R) [µM] | IC50 (NRAS WT) [µM] | IC50 (KRAS Q61H) [µM] | IC50 (NRAS Q61K) [µM] | IC50 (Capan-1 (K-Ras G12V)) [µM] |
| --- | --- | --- | --- | --- | --- | --- | --- | --- | --- | --- | --- | --- | --- | --- |
| CCn1c(-c2cc(N3CCN(C)CC3)cnc2[C@H](C)OC)c2c3cc(ccc31)-c1csc(n1)C[C@H](NC(=O)[C@H](C(C)C)N(C)C(=O)N(C)C)C(=O)N1CCC[C@H](N1)C(=O)OCC(C)(C)C2 (atropisomer, axis not shown) [Example A277, (2S)—N-((6^3S,4S,Z)-1^1-ethyl-1^2-(2-((S)-1-methoxyethyl)-5-(4-methylpiperazin-1-yl)pyridin-3-yl)-10,10-dimethyl-5,7-dioxo-6^1,6^2,6^3,6^4,6^5,6^6-hexahydro-1^1H-8-oxa-2(4,2)-thiazola-1(5,3)-indola-6(1,3)-pyridazinacycloundecaphane-4-yl)-3-methyl-2-(1,3,3-trimethylureido)butanamide] | 0.01 to 0.1 | 0.1 to 1 | 0.01 to 0.1 | 0.01 to 0.1 | 0.01 to 0.1 | 0.01 to 0.1 | 0.01 to 0.1 | 0.01 to 0.1 | < 0.01 | 0.01 to 0.1 | 0.01 to 0.1 | 0.01 to 0.1 | 0.01 to 0.1 | < 0.01 |
| CCn1c(-c2cccnc2[C@H](C)OC)c2c3cc(ccc31)-c1csc(n1)C[C@H](NC(=O)[C@H](C(C)C)N(C)C(=O)N1CC3CCN(C)CC31)C(=O)N1CCC[C@H](N1)C(=O)OCC(C)(C)C2 (stereo partly shown) [Example A539] | 1 to 10 | 1 to 10 | 1 to 10 | 1 to 10 | 1 to 10 | 1 to 10 | 1 to 10 | 0.1 to 1 | 0.1 to 1 | 1 to 10 | 1 to 10 | 1 to 10 | 1 to 10 | 0.1 to 1 |
| CCn1c(-c2cccnc2[C@H](C)OC)c2c3cc(ccc31)-c1csc(n1)C[C@H](NC(=O)[C@H](C(C)C)N(C)C(=O)N1CCOC[C@@H]1c1ccccc1)C(=O)N1CCC[C@H](N1)C(=O)OCC(C)(C)C2 [Example A604] | 1 to 10 | 1 to 10 | 1 to 10 | 1 to 10 | 1 to 10 | 1 to 10 | 1 to 10 | 1 to 10 | 0.1 to 1 | 1 to 10 | 1 to 10 | 0.1 to 1 | 0.1 to 1 | 1 to 10 |
| CCn1c(-c2cccnc2[C@H](C)OC)c2c3cc(ccc31)-c1csc(n1)C[C@H](NC(=O)[C@H](C(C)C)N(C)C(=O)N1CC3(CC(N4CCOCC4)C3)C1)C(=O)N1CCC[C@H](N1)C(=O)OCC(C)(C)C2 (atropisomer, axis not shown) [Example A486] | 0.1 to 1 | 1 to 10 | 0.1 to 1 | 0.1 to 1 | 0.1 to 1 | 0.1 to 1 | 0.1 to 1 | 0.1 to 1 | 0.01 to 0.1 | 0.1 to 1 | 0.1 to 1 | 0.1 to 1 | 0.01 to 0.1 | 0.01 to 0.1 |
| CCn1c(-c2cc(N3CCN(C)CC3)cnc2[C@H](C)OC)c2c3cc(ccc31)-c1csc(n1)C[C@H](NC(=O)[C@H](C1CCCC1)N(C)C(=O)N1CCC1)C(=O)N1CCC[C@H](N1)C(=O)OCC(C)(C)C2 (atropisomer, axis not shown) [Example A529] | 0.01 to 0.1 | 0.1 to 1 | 0.01 to 0.1 | 0.01 to 0.1 | 0.01 to 0.1 | 0.01 to 0.1 | 0.01 to 0.1 | 0.01 to 0.1 | < 0.01 | 0.01 to 0.1 | 0.01 to 0.1 | 0.01 to 0.1 | 0.01 to 0.1 | < 0.01 |
| CCn1c(-c2cccnc2[C@H](C)OC)c2c3cc(ccc31)-c1csc(n1)C[C@H](NC(=O)[C@H](C(C)C)N1CCN(C)C1=O)C(=O)N1CCC[C@H](N1)C(=O)OCC(C)(C)C2 [Example A389] | 1 to 10 | 1 to 10 | 1 to 10 | 1 to 10 | 1 to 10 | 0.1 to 1 | 1 to 10 | 0.1 to 1 | 0.01 to 0.1 | 1 to 10 | 1 to 10 | 0.1 to 1 | 0.1 to 1 | 0.01 to 0.1 |

Continued, in another order:

| IC50 (KRAS WT) [µM] | IC50 (KRAS G12D) [µM] | IC50 (KRAS G12S) [µM] | IC50 (KRAS G13C) [µM] | IC50 (KRAS G12V) [µM] | IC50 (KRAS G12C) [µM] | IC50 (KRAS G13D) [µM] | IC50 (NRAS G12C) [µM] | IC50 (NCI-H358 (K-Ras G12C)) [µM] | IC50 (NRAS Q61R) [µM] | IC50 (NRAS WT) [µM] | IC50 (KRAS Q61H) [µM] | IC50 (NRAS Q61K) [µM] | Structure (SMILES) | IC50 (Capan-1 (K-Ras G12V)) [µM] |
| --- | --- | --- | --- | --- | --- | --- | --- | --- | --- | --- | --- | --- | --- | --- |
| 1 to 10 | > 10 | 1 to 10 | 1 to 10 | 1 to 10 | 1 to 10 | 1 to 10 | 0.1 to 1 | 0.1 to 1 | 1 to 10 | 1 to 10 | 0.1 to 1 | 0.1 to 1 | CCn1c(-c2cccnc2[C@H](C)OC)c2c3cc(ccc31)-c1csc(n1)C[C@H](NC(=O)[C@H](C(C)C)N(C)C(=O)N1CC3(C1)CS(=O)(=O)CCN3C)C(=O)N1CCC[C@H](N1)C(=O)OCC(C)(C)C2 [Example A482] | 0.1 to 1 |
| 1 to 10 | 1 to 10 | 1 to 10 | 1 to 10 | 1 to 10 | 1 to 10 | 0.1 to 1 | 1 to 10 | 0.1 to 1 | 1 to 10 | 1 to 10 | 0.1 to 1 | 1 to 10 | CCn1c(-c2cccnc2[C@H](C)OC)c2c3cc(ccc31)-c1csc(n1)C[C@H](NC(=O)[C@H](C(C)C)N(C)C(=O)N1CC[C@]13CCCN(C)C3)C(=O)N1CCC[C@H](N1)C(=O)OCC(C)(C)C2 [Example A442] | 1 to 10 |
| 0.1 to 1 | 0.1 to 1 | 0.1 to 1 | 0.1 to 1 | 0.1 to 1 | 0.1 to 1 | 0.1 to 1 | 0.1 to 1 | 0.01 to 0.1 | 0.1 to 1 | 0.1 to 1 | 0.01 to 0.1 | 0.1 to 1 | CCn1c(-c2cccnc2[C@H](C)OC)c2c3cc(ccc31)-c1csc(n1)C[C@H](NC(=O)[C@H](C(C)C)N(C)C(=O)N1CCCC[C@@H](N(C)C)C1)C(=O)N1CCC[C@H](N1)C(=O)OCC(C)(C)C2 [Example A492] | 0.1 to 1 |
| 0.1 to 1 | 1 to 10 | 0.1 to 1 | 0.1 to 1 | 0.1 to 1 | 0.01 to 0.1 | 0.1 to 1 | 0.01 to 0.1 | 0.01 to 0.1 | 0.1 to 1 | 0.1 to 1 | 0.1 to 1 | 0.01 to 0.1 | CCn1c(-c2cccnc2[C@H](C)OC)c2c3cc(ccc31)-c1csc(n1)[C@@H](O)[C@H](NC(=O)[C@H](C(C)C)N(C)C(=O)N1CC(N(C)C)C1)C(=O)N1CCC[C@H](N1)C(=O)OCC(C)(C)C2 (atropisomer, axis not shown) [Example A489] | 0.1 to 1 |
| 0.1 to 1 | 0.1 to 1 | 0.1 to 1 | 0.1 to 1 | 0.1 to 1 | 0.01 to 0.1 | 0.1 to 1 | 0.01 to 0.1 | 0.01 to 0.1 | 0.1 to 1 | 0.1 to 1 | 0.01 to 0.1 | 0.01 to 0.1 | CCn1c(-c2cccnc2[C@H](C)OC)c2c3cc(ccc31)-c1csc(n1)C[C@H](NC(=O)[C@H](C(C)C)N(C)C(=O)N1CC(N(C)C3CC3)C1)C(=O)N1CCC[C@H](N1)C(=O)OCC(C)(C)C2 (atropisomer, axis not shown) [Example A285] | 0.01 to 0.1 |
